Legend:
[1] = tested on: A2780 cells; test: Cell viability by MTT assay, A2780; type: cell-based; details: Homo sapiens, 48 h
Description: A2780 and SKOV3 cell lines were purchased from the European Collection of Cell Cultures (ECACC, London, UK) and Korean Cell Line Bank (KCLB, Seoul, Republic of Korea) respectively. Each cell line was seeded in a 96-well plate at an appropriate cell number (3000 cells/100 μL in each well). After 24 h, butein was added to the plates at each of the following concentrations, 0, 3.125, 6.25, 12.5, 25, and 50 μM, in triplicate in the presence of serum medium. After 48 h, 100 μL of […] (Sigma-Aldrich, St. Louis, MO, USA) solubilizing solution was added to each well and incubated for 4 h. The solution was then aspirated, and 100 μL of DMSO was added for cell lysis. The spectrophotometric absorbance was measured at 540 nm. Half of the maximum inhibitory concentration (IC50) was determined using GraphPad Prism software (version 7.0).

[2] = tested on: A2780 cells; test: Flow cytometric cell cycle analysis (PI), A2780; type: cell-based, human; details: 25 μM; 45.3% under control conditions
Description: (§1) A2780 and SKOV3 cell lines were treated with control (siltuximab 10 μM) and butein (5, 10, and 25 μM). After 6 h, the cells were fixed with 70% ethanol for cell cycle analysis and stained with propidium iodide (PI). Cell death was analyzed using the FITC Annexin V Apoptosis Detection kit with 7-AAD (Cat.no. 640922, BioLegend, San Diego, CA, USA). Cells were sorted using a FACS Canto II (BD Biosciences, Franklin Lakes, NJ, USA) and cell cycle and apoptosis were analyzed using BD FACS Diva software version 6. 2. Analysis (BD Biosciences, Franklin Lakes, NJ, USA) was performed in triplicate.

[3] = tested on: SKOV3 cells; test: Flow cytometric cell cycle analysis (PI), SKOV3; type: cell-based, human; details: butein treatment; 58.3% under control conditions
Description: as §1

[4] = tested on: SKOV3 cells; test: Clonogenic formation assay, SKOV3; type: cell-based, human; details: compared with control siltuximab-treated cells
Description: A2780 and SKOV3 cell lines were seeded at approximately 5000 cells/well in 24-well plates. Butein was added to the cell medium at various concentrations (5, 10, and 25 μM) together with control siltuximab (CTNO328; EUSA Pharma, Inc., Hemel Hempstead, UK) for 12 h. After 2 weeks, the colonies formed were fixed with fixer buffer, stained with crystal violet, and imaged with a ChemiDoc imaging system (Bio-Rad, Herles, CA, USA).

[5] = tested on: A2780 cells; test: Wound-healing assay, A2780; type: cell-based, human; details: 24 h and 48 h, concentration-dependent, vs control, 0.1% DMSO and siltuximab
Description: A2780 and SKOV3 cells were cultured to 90% confluence in 6-well plates. After changing to a serum-free medium, the cell monolayer was scraped to artificially form homogeneous wound with uniform thickness. The drug treatment for each well was carried out in the following manner: siltuximab at 50 μM; butein at 10, 25, and 50 μM. The cells were imaged at 0, 24, and 48 h.

[6] = tested on: A2780 cells; test: Matrigel invasion assay, A2780; type: cell-based, human; details: 48 h
Description: Matrigel invasion assays were performed using a BioCoat Matrigel Invasion Chamber (BD Bioscience, Bedford, MA, USA). A2780 and SKOV3 cells (50,000 cells) were placed inside the chamber in serum-free medium containing 500 μL of drugs, and 700 μL of medium containing serum were placed outside the chamber. After incubation for 48 h, the infiltrating cells were stained using the Differential Quick Stain Kit (Cat.no. 26096-50, Electron Microscopy Sciences, Hatfield, PA, USA). Cells were imaged with a Slide Scanner (Aperio CS2, Leica Microsystems, Wetzlar, Germany) and the number of invading cells was quantified using Image J.

[7] = tested on: STAT3 phosphorylation in A2780 cells; test: Western blotting of STAT3 phosphorylation, A2780; type: cell-based, human; details: relative to IL-6 treated cells
Description: After each drug treatment of the cells, the cells were dissolved in 100 μL of radioimmunoprecipitation assay (RIPA) buffer (Thermo Fisher Scientific Inc., Waltham, MA, USA) and centrifuged to separate the supernatant containing protein. Isolated protein concentrations were measured using the Pierce BCA Protein Assay Kit (Thermo Fisher Scientific Inc., Waltham, MA, USA). Aliquots of proteins quantified at […] were boiled at 100 °C in 5× sample buffer, separated on a 12% SDS-polyacrylamide gel and electrophoresed onto polyvinylidene difluoride (PDVF) membranes (Millipore, Billerica, MA, USA). The PDVF membranes were blocked for 1 h at 25 °C with 5% BSA in 1× tris buffered saline containing 0.05% Tween20 (TBST) (Sigma-Aldrich, St. Louis, MO, USA). The membrane was incubated in the primary antibody at 4 °C overnight. PDVF membranes were washed with 1× TBST and incubated with AffiniPure goat anti-rabbit IgG secondary antibody (Jackson Immunoresearch, West Grove, PA, USA) for 1 h at room temperature. After washing again with TBST buffer, enhanced signals were detected using the SuperSignal™ West Femto Maximum Sensitivity Substrate kit (cat.no. 34094, Thermo Scientific, Rockford, IL, USA). The blot was imaged using the ChemiDoc imaging system (Bio-Rad, Herles, CA, USA), and protein expression was quantified with the ImageJ software (v1.8.0).

## O=C(/C=C/c1ccc(O)c(O)c1)c1ccc(O)cc1O [butein]
[1]
  IC50: 64.7 ± 6.27 µM
[2]
  A2780 cells in G1-phase: 55.9%
[3]
  SKOV3 cells in G1-phase: 65.8%
[4]
  Clonogenicity, SKOV3: significantly inhibited
[5]
  Cell migration, A2780: reduced
[6]
  Cell infiltration (invasion), A2780: similarly affected
[7]
  Phosphorylation of STAT3, A2780: inhibited in a concentration-dependent manner
